Assay results published in ChEMBL document CHEMBL2439978, “Perindopril and ramipril phosphonate analogues as a new class of angiotensin converting enzyme inhibitors” (Bioorg Med Chem, 2013).

What was measured:
[1] = target: T1, Angiotensin-converting enzyme (Homo sapiens, UniProt P12821); assay: Inhibition of ACE (unknown origin)
[2] = target: T1, Angiotensin-converting enzyme; assay: Inhibition of recombinant human ACE using (7-methoxycoumarin-4-yl)acetyl-Arg-Pro-Pro-Gly-Phe-Ser-Ala-Phe-Lys(2,4-dinitrophenyle)-OH as substrate after 30 mins by fluorescence assay

T1 sequence (P12821 whole entry): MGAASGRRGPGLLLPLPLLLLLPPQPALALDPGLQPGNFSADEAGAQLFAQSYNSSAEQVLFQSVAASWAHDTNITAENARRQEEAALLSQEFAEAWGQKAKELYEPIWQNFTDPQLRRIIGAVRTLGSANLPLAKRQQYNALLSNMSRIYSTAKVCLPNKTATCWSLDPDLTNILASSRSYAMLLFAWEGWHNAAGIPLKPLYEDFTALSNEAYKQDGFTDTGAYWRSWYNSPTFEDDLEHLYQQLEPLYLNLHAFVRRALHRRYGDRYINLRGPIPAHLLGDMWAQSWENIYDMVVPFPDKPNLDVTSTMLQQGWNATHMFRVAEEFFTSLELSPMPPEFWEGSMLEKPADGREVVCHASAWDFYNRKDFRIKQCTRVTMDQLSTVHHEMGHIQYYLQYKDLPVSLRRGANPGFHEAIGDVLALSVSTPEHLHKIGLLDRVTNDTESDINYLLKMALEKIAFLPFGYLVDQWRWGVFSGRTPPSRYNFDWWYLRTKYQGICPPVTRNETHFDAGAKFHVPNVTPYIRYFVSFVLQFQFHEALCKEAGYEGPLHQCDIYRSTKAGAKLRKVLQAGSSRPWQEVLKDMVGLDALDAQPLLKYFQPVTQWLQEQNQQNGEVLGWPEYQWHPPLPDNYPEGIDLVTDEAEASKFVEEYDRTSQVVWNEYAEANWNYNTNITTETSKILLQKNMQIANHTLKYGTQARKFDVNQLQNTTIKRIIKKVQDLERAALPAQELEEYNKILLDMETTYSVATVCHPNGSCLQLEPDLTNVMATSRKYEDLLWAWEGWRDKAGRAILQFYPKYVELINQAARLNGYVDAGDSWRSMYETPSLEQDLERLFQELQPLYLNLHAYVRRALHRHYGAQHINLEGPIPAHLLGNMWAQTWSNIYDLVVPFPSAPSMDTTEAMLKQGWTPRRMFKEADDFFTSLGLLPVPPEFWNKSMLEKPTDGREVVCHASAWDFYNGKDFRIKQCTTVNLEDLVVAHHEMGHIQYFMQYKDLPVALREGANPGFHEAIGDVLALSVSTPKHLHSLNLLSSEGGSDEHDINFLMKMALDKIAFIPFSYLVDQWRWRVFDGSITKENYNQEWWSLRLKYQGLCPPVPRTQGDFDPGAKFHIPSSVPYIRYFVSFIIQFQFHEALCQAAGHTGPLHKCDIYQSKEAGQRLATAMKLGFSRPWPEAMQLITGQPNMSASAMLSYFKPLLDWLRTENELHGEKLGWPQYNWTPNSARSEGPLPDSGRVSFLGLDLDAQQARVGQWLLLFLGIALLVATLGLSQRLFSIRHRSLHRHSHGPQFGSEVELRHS

IC50 [1]	IC50 [2]	Structure (SMILES)
1.5 nM	–	CCC[C@H](N[C@@H](C)C(=O)N1[C@H](C(=O)O)C[C@@H]2CCCC[C@@H]21)C(=O)OCC [PERINDOPRIL]
–	30 nM	CCCC(N[C@@H](C)C(=O)N1[C@H](C(=O)O)C[C@@H]2CCCC[C@@H]21)P(=O)(O)O (stereo partly drawn)
–	40 nM	C[C@H](NC(CCc1ccccc1)P(=O)(O)O)C(=O)N1[C@H](C(=O)O)C[C@@H]2CCCC[C@@H]21 (stereo partly drawn)
